The values that follow come from US6887981B2, “Natural antibacterial peptide, the nucleotide sequence encoding it and the use thereof” (Shanghai CAS Shenglonda Biotech (Group) Co., Ltd., priority 2002, dated 2005).

Assay [1] is described as follows: EDS rat model, androgen (serum testosterone) level after EDS injection. In kind it is in vivo, Sprague-Dawley rat. As to conditions: adult rat, intraperitoneal EDS 7.5 mg/100 g bodyweight; restored in about two weeks. The method, then: The “▴” line represents rat serum testosterone level at various time intervals after EDS injection. The “♦” line represents rat Bin1b expression changes which are calibrated by 18s level.
Adult Sprague-Dawley was intraperitoneally injected with EDS (7.5 mg/100 g bodyweight) in DMSO-H2O (1:3, v/v). The rats were sacrificed on day 1, 3, 7, 14, 21, 28 and 42. The rat without EDS injection served as the negative control. 20 ug total RNA was extracted from rat caput epididymis, fractionated by 1.2% formaldehyde agarose gel electrophoresis, blotted onto Hybond-N+ membrane and hybridized with a probe located at Bin1b cDNA 3′ terminal and 18s ribosome RNA probe.

A further assay has as its system E. coli. Briefly: Antimicrobial activity of secretions of primary epididymal epithelial cultures, CFU counting. As to conditions: concluded from caput culture secretions and antisense block. In kind it is cell-based. The method, then:
FIG. 7A. […] 100 colony forming units (CFU) of E. coli was added to cultures 16 hours prior to examination.
A total of 100 colony-forming units (CFU) of E. coli was added to the apical compartment of the epithelial cells separately from caput epididymis and cauda epididymis. The medium was collected 16 hours later for CFU counting.

Consider `CS(=O)(=O)OCCOS(C)(=O)=O` [EDS, Ethylene Dinethamesulfonate], for which the “secretion of androgen after EDS injection” value in assay [1] was “decreased immediately”.

B1: Bin1b: natural antibacterial peptide of beta-defensin family expressed in rat caput epididymidis; SEQ ID NO:2, mature form SEQ ID NO:3 (protein, listed as Homo sapiens)
chain: MKVLLLFAVFFCLVQRNSGDIPPGIRNTVCFMQRGHCRLFMCRSGERKGDICSDPWNRCCVSSSIKNR
modifications: ends and bridges not checked
On to B1, for which, in the assay with E. coli, the “antimicrobial activity of Bin1b” value is on record as “antimicrobial activity”.
